System: cholesterol absorption
Assay: Cholesterol absorption test: uptake of 14C-cholesterol by the liver
Format: in vivo, mouse
Conditions: dose at which the uptake of 14C-cholesterol by the liver is halved (50%), based on a control group; test substance given immediately prior to peroral test meal; liver after 24 h
Source text: Effect on Cholesterol Absorption +^3H-Taurocholic Acid Excretion Using Fecal Excrement of Mice, Rats or Hamsters
NMRI mice, Wistar rats, or Golden Syrian hamsters (in groups of n=4-6) are kept in metabolic cages, where they are fed with a standard diet (Altromin, Lage (Lippe)). The afternoon prior to the administration of the radioactive tracers (^14C-cholesterol), the feed is removed and the animals are adapted to grates.
Additionally, the animals are labeled s.c. with ^3H-TCA (taurocholic acid) (for example 1 μCi/mouse up to 5 μCi/rat) 24 hours prior to the peroral administration of the test meal (^14C-cholesterol in Intralipid® 20, Pharmacia-Upjohn).
Cholesterol absorption test: 0.25 ml/mouse Intralipid® (Pharmacia-Upjohn) ((spiked with 0.25 μCi of ^14C-cholesterol in 0.1 mg of cholesterol) is administered perorally by gavage.
Test substances are prepared separately in 0.5% methylcellulose (Sigma)/5% Solutol (BASF, Ludwigshafen) or a suitable vehicle.
The administration volume of the test substance is 0.5 ml/mouse. The test substance is administered immediately prior to the test meal (Intralipid labeled with ^14C-cholesterol) (cholesterol absorption test).
The feces are collected over a period of 24 h: fecal elimination of ^14C-cholesterol and ^3H-taurocholic acid (TCA) is determined after 24 hours.
The livers are removed and homogenized, and aliquots are incinerated in an oximate (Model 307, Packard) to determine the amount of ^14C-cholesterol which had been taken up/absorbed.
The amount of ^14C-cholesterol taken up by the liver is based on the administered dose. The ED50 values are interpolated from a dose-effect curve as the dose at which the uptake of ^14C-cholesterol by the liver is halved (50%), based on a control group.

Row | SMILES | ED50 (liver)
1 | COc1ccc(C2C(CCC(O)c3ccc(F)cc3)C(=O)N2c2ccc(CNC(=O)CCCCN(Cc3ccccc3)CC(O)C(O)C(O)C(O)CO)cc2)cc1.O=C(O)C(F)(F)F (stereo not drawn) [Example XVIII, Benzyl-(4-{4-[3-[3-(4-fluorophenyl)-3-hydroxypropyl]-2-(4-methoxyphenyl)-4-oxoazetidin-1-yl]benzylcarbamoyl}butyl)-(2,3,4,5,6-pentahydroxyhexyl)ammonium trifluoroacetate] | 1.0 mg/mouse
2 | C[N+](C)(C)CCCCC(NC(=O)OCC1c2ccccc2-c2ccccc21)C(=O)NCc1ccc(C2C(CCC(O)c3ccc(F)cc3)C(=O)N2c2ccc(F)cc2)cc1.[Cl-] (stereo not drawn) [Example XXI] | 1.0 mg/mouse
3 | O=C(COCCOCC(=O)NCc1ccc(C2C(CCC(O)c3ccc(F)cc3)C(=O)N2c2ccc(F)cc2)cc1)NCCOCCOCC(=O)C(O)C(O)C(O)C(O)CO (stereo not drawn) [XIII, N-(4-{1-(4-Fluorophenyl)-3-[3-(4-fluorophenyl)-3-hydroxypropyl]-4-oxoazetidin-2-yl}-benzyl)-2-[2-({2-[2-(3,4,5,6,7-pentahydroxy-2-oxoheptyloxy)ethoxy]-ethylcarbamoyl}-methoxy)ethoxy]acetamide] | 0.3 mg/mouse
4 | C[N+](C)(C)CCCC(=O)NCc1ccc(C2C(CCC(O)c3ccc(F)cc3)C(=O)N2c2ccc(F)cc2)cc1.O=C([O-])C(F)(F)F (stereo not drawn) [Example XV, [3-(4-{1-(4-Fluorophenyl)-3-[3-(4-fluorophenyl)-3-hydroxypropyl]-4-oxoazetidin-2-yl}benzylcarbamoyl)propyl]trimethylammonium trifluoroacetate] | 0.01 mg/mouse
5 | CN(CCOCCOCCOc1ccc(C2C(CCC(O)c3ccc(F)cc3)C(=O)N2c2ccc(F)cc2)cc1)CC(O)C(O)C(O)C(O)CO (stereo not drawn) [Example XXX, 1-(4-Fluorophenyl)-3-[3-(4-fluorophenyl)-3-hydroxypropyl]-4-{4-[2-(2-{2-[methyl-(2,3,4,5,6-pentahydroxyhexyl)amino]ethoxy}ethoxy)ethoxy]phenyl}azetidin-2-one] | 0.1 mg/mouse
6 | CN(CCCCOc1ccc(C2C(CCC(O)c3ccc(F)cc3)C(=O)N2c2ccc(F)cc2)cc1)CC(O)C(O)C(O)C(O)CO (stereo not drawn) [XXV, 1-(4-Fluorophenyl)-3-[3-(4-fluorophenyl)-3-hydroxypropyl]-4-(4-{4-[methyl-(2,3,4,5,6-pentahydroxyhexyl)amino]butoxy}phenyl)azetidin-2-one] | 0.3 mg/mouse
7 | COc1ccc(C2C(CCC(O)c3ccc(F)cc3)C(=O)N2c2ccc(CNC(C)=O)cc2)cc1 (stereo not drawn) [Example XX, N-{4-[3-[3-(4-Fluorophenyl)-3-hydroxypropyl]-2-(4-methoxyphenyl)-4-oxoazetidin-1-yl]benzyl}acetamide] | 0.03 mg/mouse
8 | C[N+](C)(C)CCCCCOc1ccc(C2C(CCC(O)c3ccc(F)cc3)C(=O)N2c2ccc(F)cc2)cc1.[Br-] (stereo not drawn) [XXIV, [5-(4-{1-(4-Fluorophenyl)-3-[3-(4-fluorophenyl)-3-hydroxypropyl]-4-oxoazetidin-2-yl}phenoxy)pentyl]trimethylammonium bromide] | 0.3 mg/mouse
9 | O=C(NCc1ccc(C2C(CCC(O)c3ccc(F)cc3)C(=O)N2c2ccc(F)cc2)cc1)C(O)C(O)C(O)C(O)CO (stereo not drawn) [Example II] | 0.1 mg/mouse
10 | COc1ccc(C2C(CCC(O)c3ccc(F)cc3)C(=O)N2c2ccc(CNC(=O)CCCCCCCCCCCNC(=O)C(O)C(O)C(O)C(O)CO)cc2)cc1 (stereo not drawn) [III, N-4-[3-[3-(4-Fluorophenyl)-3-hydroxypropyl]-2-(4-methoxyphenyl)-4-oxoazetidin-1-yl]benzyl-12-(2,3,4,5,6-pentahydroxyhexanoylamino)dodecanamide] | 0.003 mg/mouse

System: Caco-2 cell monolayers
Assay: Bioabsorption, Caco cell model
Format: in vitro ADME
Conditions: estimated from Caco cell model
Source text: (§1) The bioabsorption of the compounds of the formula I can be examined using the Caco cell model (A. R. Hilgers et al., Caco-2 cell monolayers as a model for drug transport across the intestinal mucosa, Pharm. Res. 1990, 7, 902).
(§2) Below is a bioabsorption measurement for a reference compound: […]

Row | Estimated human bioabsorption | SMILES
11 | 100% | O=C1[C@H](CC[C@H](O)c2ccc(F)cc2)[C@@H](c2ccc(O)cc2)N1c1ccc(F)cc1 [Ezetimibe]

System: not listed separately
Assay: Bioabsorption, Caco cell model
Format: in vitro ADME
Conditions: human, Caco-2; Caco cell model; read-out: Apparent partition coefficient Papp (according to Lit. Hilgers)
Source text: as §1, §2

Row | Papp | SMILES
12 | 4.88 ×10⁻⁶ cm/s | O=C1[C@H](CC[C@H](O)c2ccc(F)cc2)[C@@H](c2ccc(O)cc2)N1c1ccc(F)cc1 [Ezetimibe]
